Measurements: patent US10870630B2, “Substituted bicyclic heteroaryl allosteric modulators of nicotinic acetylcholine receptors” (Merck Sharp & Dohme Corp., priority 2016, dated 2020)
Like-named read-outs stand apart in the source and are kept apart here.

Target: human α7 nicotinic acetylcholine receptor (α7 nAChR) (Homo sapiens, UniProt P36544)
Assay: Automated patch-clamp electrophysiology functional assay (Assay A)
Type: cell-based
Conditions: HEK cell line stably expressing human RIC-3 and human α7, IonFlux HT whole-cell population patch, 40 μM acetylcholine
Description: The α7 nAChR positive allosteric modulator (PAM) activity of the present compounds may be tested using assays known in the art. The α7 nAChR PAMs described herein have activities in an automated patch-clamp electrophysiology functional assay as described in the examples. The assay was performed using the IonFlux HT in a whole-cell, population patch configuration. See Golden et al. Assay Drug Dev. Technol. (2011) 9:608-619. The compounds were assessed for their ability to modulate the function of the human […] nAChR stably expressed in a HEK cell line both in the presence, and in the absence of the natural 07 agonist acetylcholine. By performing a series of such measurements at different concentrations, the effective concentration of the α7 nAChR PAMs (EC50) was determined. See Spencer et al. Assay Drug Dev. Technol. (2012) 10:313-324.
Automated patch-clamp electrophysiology was performed using the IonFlux HT (Fluxion Biosciences Inc., San Francisco, Calif.) in the whole-cell, population patch configuration. Test compounds were assessed for their ability to modulate the function of the α7 nicotinic acetylcholine receptor both in the presence, and in the absence of the natural α7 agonist acetylcholine. A HEK cell line stably expressing both human RIC-3 and human α7 (PrecisION hnAChR α7/RIC-3, Eurofins Pharma, St. Charles, Mo.) was cultured in 175 cm^2 triple-layer tissue culture flasks to no more than 90% confluency in DMEM/F-12 growth media supplemented with 10% heat-inactivated fetal bovine serum, 1% non-essential amino acids, 0.625 μg/mL Puromycin, and 400 μg/mL Geneticin. Immediately prior to assay, cells were detached by first aspirating growth media, rinsing with Dulbecco's phosphate buffered saline, and then adding 10 mL of Accutase (Innovative Cell Technologies, San Diego, Calif.) to the flask and then incubating at 37° C. for 5 minutes. Detached cells were then recovered by the addition of 40 mL of CHO-serum-free media supplemented with 25 mM HEPES, and rocked gently in a 50 mL conical tube for 20 minutes prior to patch-clamp assay. After recovery, cells were pelleted by centrifugation at 1,000 RPM for 1 minute in a compact bench top centrifuge; recovery media was aspirated and cells were resuspended in external recording solution (150 mM NaCl, 5 mM KCl, 2 mM CaCl2, 1 mM MgCl2, 10 mM HEPES, 12 mM dextrose) to a density of 5.0×10^6 cells/mL. The cell suspension was added to the cell inlet wells on an IonFlux HT population patch plate which had previously been rinsed and primed with deionized H2O. Test compounds were serially diluted in DMSO and then resuspended to the final test concentration in external recording solution, with, or without 40 μM acetylcholine added to the external recording solution; test compounds were then transferred to the IonFlux HT population patch plate. Internal recording solution (110 mM TrisPO4, 28 mM TrisBase, 0.1 mM CaCl2, 2 mM MgCl2, 11 mM EGTA, 4 mM MgATP) was added to the internal recording solution inlet wells on the IonFlux HT patch plate previously loaded with cells and test compounds, and the plate loaded into the IonFlux HT instrument. A protocol was executed on the IonFlux HT to trap the cells, break into the cells, and establish the whole-cell recording configuration; cells were voltage-clamped at a holding potential of −60 mV for the duration of the experiment, all experiments were conducted at room temperature, and the IonFlux HT injection pressure was 8 psi for solution applications. Upon establishing the whole-cell configuration, external recording solution was perfused into the recording chambers for 120 seconds and then 40 μM acetylcholine was applied for 1 second and immediately washed off with external recording solution for 60 seconds. The 40 μM acetylcholine-evoked α7 current served as the current response to which subsequent test compound effects, in the presence, or in the absence of 40 μM acetylcholine would be quantified relative to. […]

Chain of human α7 nicotinic acetylcholine receptor (α7 nAChR) (P36544 23-502): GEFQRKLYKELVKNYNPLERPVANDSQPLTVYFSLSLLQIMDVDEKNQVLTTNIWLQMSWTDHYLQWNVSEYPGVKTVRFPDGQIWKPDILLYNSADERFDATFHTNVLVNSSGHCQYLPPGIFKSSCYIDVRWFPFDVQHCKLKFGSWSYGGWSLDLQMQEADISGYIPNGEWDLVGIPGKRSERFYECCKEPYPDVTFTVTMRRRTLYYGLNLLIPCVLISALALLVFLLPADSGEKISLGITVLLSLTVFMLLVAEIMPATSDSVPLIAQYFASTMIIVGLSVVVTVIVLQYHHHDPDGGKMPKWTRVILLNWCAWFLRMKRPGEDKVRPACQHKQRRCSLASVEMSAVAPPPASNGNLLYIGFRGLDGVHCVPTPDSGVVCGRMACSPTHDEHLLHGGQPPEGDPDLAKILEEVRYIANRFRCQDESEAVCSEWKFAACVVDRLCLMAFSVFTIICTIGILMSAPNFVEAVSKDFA

SMILES | EC50 (read-out: α7 nAChR Potency) | EC50 (read-out: α7 nAChR EC50)
NS(=O)(=O)c1ccc(C2CC2c2ccc3ccncc3n2)cc1 (racemic) [Example E8, 4-[2-(1,7-Naphthyridin-2-yl)cyclopropyl]benzenesulfonamide] | 500 to 5000 nM | 
CC1(C)[C@@H](c2ccc(S(N)(=O)=O)cc2)[C@@H]1c1nc2c(o1)CCCC2 [Example C3, 4-[(1S,3S)-2,2-Dimethyl-3-(4,5,6,7-tetrahydro-1,3-benzoxazol-2-yl)cyclopropyl]benzenesulfonamide] | 100 to 500 nM | 120 nM
NS(=O)(=O)c1ccc(C2CC2c2cnc3occc3c2)cc1 (racemic) [Example E11, 4-(2-Furo[2,3-b]pyridin-5-ylcyclopropyl)benzenesulfonamide] | 500 to 5000 nM | 
NS(=O)(=O)c1ccc([C@H]2[C@H](c3nc4ccccc4s3)C2(F)F)cc1 [Example A8, 4-[(1R,3S)-3-(1,3-Benzothiazol-2-yl)-2,2-difluoro-cyclopropyl]benzenesulfonamide] | ≤ 100 nM | 38 nM
NS(=O)(=O)c1ccc([C@H]2C[C@@H]2c2nc3ccccc3o2)cc1 [Example B4, 4-[(1S,2S)-2-(1,3-Benzoxazol-2-yl)cyclopropyl]benzenesulfonamide] | 500 to 5000 nM | 
Cc1nc2c(C3CC3c3ccc(S(N)(=O)=O)cc3)cccc2s1 (racemic) [Example E1, 4-[2-(2-Methyl-1,3-benzothiazol-4-yl)cyclopropyl]benzenesulfonamide] | 100 to 500 nM | 410 nM
CC1(C)[C@H](c2ccc(S(N)(=O)=O)cc2)[C@H]1c1nc2c(o1)CCCC2 [Example D3, 4-[(1R,3R)-2,2-Dimethyl-3-(4,5,6,7-tetrahydro-1,3-benzoxazol-2-yl)cyclopropyl]benzenesulfonamide] | 500 to 5000 nM | 
Cn1ncc2cc(C3CC3c3ccc(S(N)(=O)=O)cc3)ccc21 (racemic) [Example E9, 4-[2-(1-Methylindazol-5-yl)cyclopropyl]benzenesulfonamide] | 500 to 5000 nM | 2800 nM
NS(=O)(=O)c1ccc([C@@H]2C[C@H]2c2nc3ccccc3o2)cc1 [Example 5, 4-[(1R,2R)-2-(1,3-Benzoxazol-2-yl)cyclopropyl]benzenesulfonamide] | 100 to 500 nM | 160 nM
NS(=O)(=O)c1ccc([C@@H]2C[C@H]2c2cnc3ccccc3n2)cc1 (relative stereo) [Example 7, 4-[trans-2-(Quinoxalin-2-yl)cyclopropyl]benzenesulfonamide] | 500 to 5000 nM | 1300 nM
CC1(C)[C@@H](c2ccc(S(N)(=O)=O)cc2)[C@@H]1c1ncc2c(F)cccc2n1 [Example C2, 4-[(1S,3S)-3-(5-Fluoroquinazolin-2-yl)-2,2-dimethyl-cyclopropyl]benzenesulfonamide] | 500 to 5000 nM | 
CC1(C)[C@H](c2ccc(S(N)(=O)=O)cc2)[C@H]1c1nc2ccccc2o1 [Example 1, 4-[(1R,3R)-3-(1,3-Benzoxazol-2-yl)-2,2-dimethylcyclopropyl]benzenesulfonamide] | 500 to 5000 nM | 620 nM
Cn1cc2ccc(C3CC3c3ccc(S(N)(=O)=O)cc3)cc2n1 (racemic) [Example E12, 4-[2-(2-Methylindazol-6-yl)cyclopropyl]benzenesulfonamide] | 500 to 5000 nM | 5000 nM
NS(=O)(=O)c1ccc(C2CC2c2ccc3nccnc3c2)cc1 (racemic) [Example E4, 4-(2-Quinoxalin-6-ylcyclopropyl)benzenesulfonamide] | 500 to 5000 nM | 
CC1(C)[C@H](c2ccc(S(N)(=O)=O)cc2)[C@H]1c1nc2cc(Cl)ccc2o1 [Example B6, 4-[(1R,3R)-3-(5-Chloro-1,3-benzoxazol-2-yl)-2,2-dimethyl-cyclopropyl]benzenesulfonamide] | 100 to 500 nM | 200 nM
Cn1c([C@@H]2[C@@H](c3ccc(S(N)(=O)=O)cc3)C2(C)C)nc2cc(F)cc(F)c21 [Example D4, 4-[(1R,3R)-3-(5,7-Difluoro-1-methyl-benzimidazol-2-yl)-2,2-dimethyl-cyclopropyl]benzenesulfonamide] | 5000 to 50000 nM | 
NS(=O)(=O)c1ccc([C@H]2[C@H](c3nc4ccccc4o3)C2(F)F)cc1 [Example A7, 4-[(1R,3R)-3-(1,3-Benzoxazol-2-yl)-2,2-difluoro-cyclopropyl]benzenesulfonamide] | ≤ 100 nM | 52 nM
CC1(C)[C@@H](c2ccc(S(N)(=O)=O)cc2)[C@@H]1c1nc2cc(Cl)ccc2o1 [Example A6, 4-[(1S,3S)-3-(5-Chloro-1,3-benzoxazol-2-yl)-2,2-dimethyl-cyclopropyl]benzenesulfonamide] | 100 to 500 nM | 430 nM
CC1(C)[C@H](c2ccc(S(N)(=O)=O)cc2)[C@H]1c1nc2c(F)cc(F)cc2s1 [Example B8, 4-[(1R,3R)-3-(4,6-Difluoro-1,3-benzothiazol-2-yl)-2,2-dimethyl-cyclopropyl]benzenesulfonamide] | 100 to 500 nM | 
NS(=O)(=O)c1ccc(C2CC2c2ccc3cc(Cl)ncc3c2)cc1 (racemic) [Example E6, 4-[2-(3-Chloro-7-isoquinolyl)cyclopropyl]benzenesulfonamide] | 500 to 5000 nM | 1200 nM
NS(=O)(=O)c1ccc(C2CC2c2cnn3ccccc23)cc1 (racemic) [Example E3, 4-(2-Pyrazolo[1,5-a]pyridin-3-ylcyclopropyl)benzenesulfonamide] | 500 to 5000 nM | 3500 nM
CC1(C)[C@H](c2ccc(S(N)(=O)=O)cc2)[C@H]1c1nc2ccncc2o1 [Example D2, 4-[(1R,3R)-2,2-Dimethyl-3-oxazolo[5,4-c]pyridin-2-yl-cyclopropyl]benzenesulfonamide] | 500 to 5000 nM | 3400 nM
COc1cccc2oc([C@H]3[C@H](c4ccc(S(N)(=O)=O)cc4)C3(C)C)nc12 [Example A1, 4-[(1S,3S)-3-(4-Methoxy-1,3-benzoxazol-2-yl)-2,2-dimethyl-cyclopropyl]benzenesulfonamide] | 500 to 5000 nM | 830 nM
NS(=O)(=O)c1ccc([C@@H]2C[C@H]2c2nc3c(o2)CCCC3)cc1 [Example 4, 4-[(1R,2R)-2-(4,5,6,7-Tetrahydro-1,3-benzoxazol-2-yl)cyclopropyl]benzenesulfonamide] | 500 to 5000 nM | 610 nM
NS(=O)(=O)c1ccc(C2CC2c2cnc3cc(Cl)cnc3c2)cc1 (racemic) [Example E2, 4-[2-(7-Chloro-1,5-naphthyridin-3-yl)cyclopropyl]benzenesulfonamide] | 500 to 5000 nM | 
NS(=O)(=O)c1ccc([C@@H]2C[C@H]2c2ncc3ccccc3n2)cc1 [Example 3, 4-[(1R,2R)-2-(Quinazolin-2-yl)cyclopropyl]benzenesulfonamide] | 100 to 500 nM | 370 nM
NS(=O)(=O)c1ccc([C@H]2[C@H](c3nc4c(o3)CCCC4)C2(F)F)cc1 [Example C4, 4-[(1R,3R)-2,2-Difluoro-3-(4,5,6,7-tetrahydro-1,3-benzoxazol-2-yl)cyclopropyl]benzenesulfonamide] | 500 to 5000 nM | 
CC1(C)[C@@H](c2ccc(S(N)(=O)=O)cc2)[C@@H]1c1nc2ccc(F)cc2o1 [Example 2, 4-[(1S,3S)-3-(6-Fluoro-1,3-benzoxazol-2-yl)-2,2-dimethylcyclopropyl]benzenesulfonamide] | ≤ 100 nM | 71 nM
CC1(C)[C@H](c2ccc(S(N)(=O)=O)cc2)[C@H]1c1ncc2ccccc2n1 [Example D1, 4-[(1R,3R)-2,2-Dimethyl-3-quinazolin-2-yl-cyclopropyl]benzenesulfonamide] | 5000 to 50000 nM | 7200 nM
